Laboratory results published in patent publication US12551532B2, “Long-acting amylin receptor agonists and uses thereof” (Eli Lilly and Company, priority 2021, dated 2026).
Starred links: 1 amine or outer side, 2 acyl side, 3 side chain; linkers in the order of their positions; H or OH if unused. Positions of bridges follow the written chain, without caps; N, C: chain ends. Non-standard residues stand in square brackets, D forms with d. Residues, ends and D or L forms follow the SMILES beside them. Groups on a side chain read outwards from the residue. *: point of attachment. C20 diacid = O=C(O)CCCCCCCCCCCCCCCCCCC(=O)*; γGlu = O=C(O)[C@H](CCC(=O)[*:2])N[*:1]; αMeL = CC(C)C[C@](C)(N)C(=O)O; Orn = NCCC[C@H](N)C(=O)O; CH2 = C([*:1])[*:2]

Assays:
human CT receptors = biological target: T1, human CT receptors (Homo sapiens, UniProt P30988); assay: hCTR cAMP functional activity (HTRF); format: cell-based; conditions: ±SE; UMUC3 cells overexpressing hCTR; relative EC50
T1 construct: expressed in transfected cells
T1 sequence (P30988 25-474): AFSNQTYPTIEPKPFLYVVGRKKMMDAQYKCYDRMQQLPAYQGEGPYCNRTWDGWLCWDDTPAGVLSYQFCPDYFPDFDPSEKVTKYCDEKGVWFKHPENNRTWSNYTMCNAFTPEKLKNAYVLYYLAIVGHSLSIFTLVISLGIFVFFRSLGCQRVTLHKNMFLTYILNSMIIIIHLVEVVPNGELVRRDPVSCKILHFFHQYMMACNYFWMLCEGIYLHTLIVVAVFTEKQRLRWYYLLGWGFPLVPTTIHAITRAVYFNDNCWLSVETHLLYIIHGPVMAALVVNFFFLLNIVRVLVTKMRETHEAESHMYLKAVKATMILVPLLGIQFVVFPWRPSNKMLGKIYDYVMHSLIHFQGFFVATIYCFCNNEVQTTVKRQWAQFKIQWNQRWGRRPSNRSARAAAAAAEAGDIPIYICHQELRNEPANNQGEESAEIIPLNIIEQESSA
Summary of the method: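 UM-UC-3 bladder cells stably overexpressing human CT receptor, 1200 cells/well, exposed to peptides in 1:3 dilution series for 1 h at room temperature. Intracellular cAMP measured by HTRF after 60 min lysis/detection, converted to pmol/well from a per-experiment cAMP standard curve.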

[1] = system: pre-existing antibodies (ADA) in normal human serum; assay: Pre-existing reactivity (ACE assay format); conditions: >50 donors; treatment-naive normal human serum
Description: This assay assesses the presence of pre-existing antibodies (ADA) against the tested molecules in treatment-naive normal human serum (NHS). Diluted NHS is incubated overnight on a Pierce Streptavidin plate coated with biotinylated tested molecules. On the following day, the captured binding proteins are acid eluted, hard-coated to a Mesoscale (MSD) plate, and detected with a combination of biotin-labeled molecule and ruthenium-labeled streptavidin. If anti-drug antibodies are present, they will bind the labeled drug and the resulting signal is referred to as Tier 1 signal (expressed as electrochemiluminescence). This signal is confirmed in Tier 2 by adding excess unlabeled tested molecule in the detection step, which results in the suppression of the Tier 1 signal. The presence of pre-existing anti-drug antibodies is expressed as magnitude of the 90th percentile of Tier 2 inhibition. The 90th percentile of Tier 2 inhibition, is a statistical tool to assess the magnitude of specificity of Tier 1 reactivity. This 90th percentile is used to rank molecules in terms of ADA risk.

CD4+ T cells = assay: T cell proliferation assay; conditions: 7-10 donors with diverse MHC
Description: This assay assesses the ability of tested antibodies or tested MAPPS peptides to activate CD4+ T cells by inducing cellular proliferation. CD8+ T cell depleted PBMC's are prepared and labeled with CFSE. Each sample is tested with media control, keyhole limpet haemocyanin (KLH; positive clinical benchmark control), tested antibodies, or tested MAPPS peptides. Cultures are incubated for 7 days. On day 7, samples are analyzed by flow cytometry.

human dendritic cells = format: cell-based
Description: MAPPS profiles the MHC-II presented peptides on human dendritic cells treated with tested molecules. CD14+ cells, isolated from the PBMCs of normal human donors, are cultured and differentiated into immature DCs by incubation with IL-4 and GM-CSF. On day 4, culture media is replaced with fresh media containing tested molecules. On day 5, LPS is added to transform the cells into mature DCs. On day 6, cells are lysed in RIPA buffer with protease inhibitors. Immunoprecipitation of MHC-II complexes are performed using biotinylated anti-MHC-II antibody coupled to streptavidin beads. The bound complex is eluted and filtered. The isolated MHC-II peptides are analyzed by a mass spectrometer. Peptide identifications are generated by an internal proteomics pipeline using search algorithms with no enzyme and a bovine/human database with test sequences appended to the database. A KNIME workflow is used to process the identification files from the samples. Peptides identified from the test articles are aligned against the parent sequence of the test molecule. The output is used to determine the percentage of donors displaying MHC-II peptides from regions of the test molecule. Compound II, Compound IV, Compound VI, Compound VIII, a compound representative of U.S. Pat. No. 9,023,789 (hereinafter “Compound '789”), and Pramlintide are tested in the MAPPs assay.

hAMY1R = biological target: T2, hAMY1R (Homo sapiens, UniProt O60894+P30988); assay: hAMY1R competitive radioligand binding filter assay (125I-rAMY); conditions: ± SE; membranes of hAMY1R overexpressing cells
T2 construct: expressed in transfected cells
Description: The equilibrium dissociation constants (Kd) for the various receptor/radioligand interactions are determined from saturation binding analysis using the same reagents and buffers as described below for compound testing.
The receptor binding affinity (Ki) of rAMY, hCT, and hAMY agonist peptides are determined from a competitive radioligand binding filter assay. The assay buffer consists of (in mM) 50 HEPES, pH 7.1, 5 MgCl2, 5 KCl, 0.2% (w/v) bacitracin, 0.003% (w/v) saponin and is used to dilute radioligand and membrane preparation. Binding reactions are carried out in 0.1 mL total reaction volume in a polystyrene 96 deep-well assay block. […] Test compounds and non-specific binding (NSB—defined as 300 nM rAMY) are added to aliquots of radioactivity buffer. […] The binding reaction is initiated by the addition of 0.05 mL of 200 μg/mL hAMY1R diluted in assay buffer to the radioactivity. Assay blocks are gently vortexed, sealed with parafilm, and incubated at RT for approximately 20 hours. […] At the end of the incubation, bound ligand is separated from free by addition of an ice cold quench buffer consisting of 100 mM NaCl, 50 mM TRIS-HCl pH 7.1 and immediately collected over the filter mat by vacuum filtration with a TomTec 96 well filter harvester using the following filter protocol (Dry time, 7; Cycle 3 repeat, 0; Wash Time, 1; Soak Time, 1; 1st Aspirate Time, 4; Wash/Aspirate Time, 7; 2nd Aspirate, 4; air pressure 2 PSI).

T2 sequence (O60894 27-148 partner, one chain of several): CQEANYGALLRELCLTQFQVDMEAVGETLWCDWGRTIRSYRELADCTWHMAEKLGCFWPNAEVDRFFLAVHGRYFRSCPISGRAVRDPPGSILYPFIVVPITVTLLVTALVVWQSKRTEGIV

EC50 (human CT receptors): 9.69 ± 2.01 nM | Pre-existing Reactivity 90th percentile T2 inhibition [1]: 51.4% | MAPPS Assay donors displayed peptides (human dendritic cells): no peptides | MAPPS Assay immunogenicity risk (human dendritic cells): Low Risk | Ki (hAMY1R): 0.0435 ± 0.0072 nM
Structure (SMILES): CC[C@H](C)[C@H](NC(=O)[C@@H]1CCCN1C(=O)CNC(=O)[C@H](Cc1ccccc1)NC(=O)[C@H](CC(N)=O)NC(=O)[C@H](Cc1c[nH]cn1)NC(=O)[C@H](CO)NC(=O)[C@H](CO)NC(=O)[C@H](CCCNC(=N)N)NC(=O)[C@@H](NC(=O)[C@H](CC(C)C)NC(=O)[C@H](Cc1ccccc1)NC(=O)[C@H](CCC(=O)O)NC(=O)[C@H](C)NC(=O)[C@](C)(CC(C)C)NC(=O)[C@H](CCCN)NC(=O)CNC(=O)[C@@H](NC(=O)[C@H](C)NC(=O)[C@@H]1CSCSC[C@H](NC(=O)[C@@H](N)CCCCNC(=O)CC[C@H](NC(=O)CC[C@H](NC(=O)CCCCCCCCCCCCCCCCCCC(=O)O)C(=O)O)C(=O)O)C(=O)N[C@@H](CCC(=O)O)C(=O)N[C@@H]([C@@H](C)O)C(=O)N[C@@H](C)C(=O)N[C@@H]([C@@H](C)O)C(=O)N1)[C@@H](C)O)C(C)C)C(=O)N[C@@H](CC(C)C)C(=O)N1CCC[C@H]1C(=O)N1CCC[C@H]1C(=O)N[C@H](C(=O)N[C@@H](CCC(=O)O)C(=O)N[C@H](C(=O)NCC(=O)N[C@@H](CO)C(=O)N[C@@H](CC(N)=O)C(=O)N[C@H](C(=O)N[C@@H](Cc1ccc(O)cc1)C(N)=O)[C@@H](C)O)C(C)C)[C@@H](C)O [Compound VIII] (H-K([γGlu-γGlu-C20 diacid])CETATCATG[Orn][αMeL]AEFLVRSSHNFGPILPPTEVGSNTY-NH2; linker 2-7 via CH2)
T Cell Proliferation Assay: protein, immunogenicity risk (CD4+ T cells): Low Risk | T Cell Proliferation Assay: protein, positive donors (CD4+ T cells): (1/9 | peptides displayed on MHC-II complexes (human dendritic cells): no peptides displayed on MHC-II complexes
